Test system: L. amazonensis
Assay: In vivo therapeutic response of hamsters experimentally infected with L. amazonensis (hamster model for cutaneous leishmaniasis)
Conditions: for cure rate: hamster model for cutaneous leishmaniasis, L. amazonensis, outcome at end of study (3 months after the end of treatment); for lesion size compared between treatment groups: hamsters infected with L. amazonensis, from the second month after the end of treatment to the end of the study; for activity against Leishmania parasites: leishmanicidal activity as shown in FIG. 4 and FIG. 5
Method: The formulation has been tested in vitro and in vivo for their leishmaninicidal activity.
A. TC1 (1.13 mg), B TC1 (4.01%), C: TC2 (1.35 mg), D: TC2 (3.0%), E: TC3 (1.72 mg), F: TC4 (1.25 mg), G: TC4 (4.03%), H: TC18 (3.0%), I: Mixture 1A, 2A, 3A (4.14%), J: Mixture 1A, 2A, 3A (7.77%), K: meglumina antimoniate (1209 mg), L: Vehicle (100 μl) and M: Vehicle (40 mg).
A. TC1 (1.13 mg), B TC1 (4.01%), C: TC2 (1.35 mg), D: TC2 (3.0%), E: TC3 (1.72 mg), F: TC4 (1.25 mg), G: TC4 (4.03%), H: TC18 (3.0%), I: Mixture 1A, 2A, 3A (4.14%), J: Mixture 1A, 2A, 3A (7.77%), K: meglumina antimoniate (1209 mg), L: Vehicle (100 μl) and M: Vehicle (40 mg). BoT: Beginning of Treatment; EoT: End of treatment. 1mAEoT: 1 month after the end of treatment, 2mAEoT: 2 months after the end of treatment, 3mAEoT: 3 months after the end of treatment. […] The efficacy may be increased using other dose or therapeutic schemes.

Row | SMILES | cure rate | lesion size compared between treatment groups | activity against Leishmania parasites
1 | O=C(N/N=C1\CCSc2ccccc21)c1ccccc1 [TC1, Benzoic acid, 2-(2,3-dihydro-4H-1-benzothiopyran-4-ylidene)hydrazide] | 77% | lowest lesion size | exhibited activity
2 | O=C1CCS(=O)(=O)c2ccccc21 [TC18, Thiochroman-4-one, 1,1-dioxide] | 63% |  | exhibited activity
3 | O=C(N/N=C1\CCSc2ccccc21)c1ccncc1 [TC2, 4-Pyridinecarboxylic acid, 2-(2,3-dihydro-4H-1-benzothiopyran-4-ylidene)hydrazid] |  | lowest lesion size | exhibited activity
